Measurements reported in patent publication US9951065B2 (Gilead Sciences, Inc., priority 2015, dated 2018).
pEC50: −log10 of the molar value.

target: T1, IDO1 (Homo sapiens, UniProt P14902); assay: Cell-based (HeLa) assay for measurement of IDO1 inhibition (kynurenine levels in supernatant after IFNγ induction); conditions: HeLa cells, IFNγ-induced IDO1, kynurenine in supernatant after 48 hour incubation; geometric mean of a minimum of four determinations
T1 construct: HeLa cells were treated with a test compound in the presence of IFNγ, which induces IDO1 expression; host or cells: H1-HeLa cells, IDO1 induced with IFNγ
T1 sequence (P14902 whole entry): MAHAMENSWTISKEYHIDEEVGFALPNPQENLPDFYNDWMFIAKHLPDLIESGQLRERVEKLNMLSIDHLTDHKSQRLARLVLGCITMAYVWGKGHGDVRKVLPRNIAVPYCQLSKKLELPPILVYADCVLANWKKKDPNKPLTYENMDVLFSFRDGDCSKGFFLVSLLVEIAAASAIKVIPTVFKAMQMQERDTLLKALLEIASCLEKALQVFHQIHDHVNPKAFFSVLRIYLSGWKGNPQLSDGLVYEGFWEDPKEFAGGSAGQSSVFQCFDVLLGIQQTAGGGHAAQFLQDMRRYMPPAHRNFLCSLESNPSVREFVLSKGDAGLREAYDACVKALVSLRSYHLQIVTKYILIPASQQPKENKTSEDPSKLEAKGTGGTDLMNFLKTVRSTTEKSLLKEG
Experimental: Example 509. Cell-Based (HeLa) Assay for Measurement of IDOL Inhibition
To measure IDO1 inhibition in tissue culture, HeLa cells were treated with a test compound in the presence of IFNγ, which induces IDO1 expression. Following incubation, cell supernatants were assayed for kynurenine levels, an indicator of IDO1 activity.
H1-HeLa cells (ATCC #CRL-1958) were seeded in 384-well plates (Greiner #82051-282) at a volume of 50 μL/well in DMEM (Corning #15-018-CM) supplemented with 10% FBS (Corning #35-011-CV) and 1% P/S/G (Corning #30-009-CL) at a density of 1,250 cells/well and incubated overnight at 37° C., 5% CO2/100% humidity. The following day, the test compounds were added in DMSO (0.5% final) at various concentrations, and IDO1 was inducibly expressed by the addition of 50 uL/well of […] of INFγ (Peprotech #300-02) in cell plating media. As a […] control, 50 uL of the cell plating media without IFNγ was added to several wells. Following a 48 hour incubation, the plates were spun down at 1,200 RPM for 5 min at 10° C. 65 μL/well of the supernatant was then transferred to new 384-well plates (Thermo #262160) that contained 10 uL/well of 30% TCA (Sigma #TO699), and the plates were sealed and incubated at 60° C. for 30 min. The plates were then centrifuged for 15 min at 2,000 RPM at 10° C. 40 μL/well of the supernatant was transferred to new 384-well plates (Thermo #262160) and was reacted with 40 μL/well of 2% (w/v) p-dimethlyaminobenzaldehyde (Sigma #156417) in glacial acetic acid (Sigma #A6283). The reaction was incubated at room temperature for 10 min and absorbance at 480 nm was read using a PerkinElmer Envision plate reader.
Data in Table 1 were normalized based on positive (−IFNγ) and negative (+IFNγ) controls and EC50 values were calculated from the fit of the dose response curves to a four-parameter equation. All EC50 values represent geometric mean values of a minimum of four determinations. These assays generally produced results within 2-fold of the reported mean.

Point of comparison: CNCCNc1nc2nccc(/C(=N/O)Nc3ccc(F)c(Cl)c3)c2[nH]1 [Example 216, N-(3-chloro-4-fluorophenyl)-N′-hydroxy-2-((2-(methylamino)ethyl)amino)-1H-imidazo[4,5-b]pyridine-7-carboximidamide], pEC50 5.70. Against it:
- CNc1nc2c(F)c(F)cc(/C(=N/O)Nc3ccc(F)c(Cl)c3)c2[nH]1 [Example 38, N-(3-Chloro-4-fluorophenyl)-4,5-difluoro-N′-hydroxy-2-(methylamino)-1H-benzo[d]imidazole-7-carboximidamide] — 0.52 log units higher, 6.22
- O/N=C(\Nc1ccc2ccoc2c1)c1ccnc2nc[nH]c12 [Example 68, N-(Benzofuran-6-yl)-N′-hydroxy-1H-imidazo[4,5-b]pyridine-7-carboximidamide] — 0.35 log units higher, 6.05
- O/N=C(\Nc1ccc(F)c(Cl)c1)c1ccc(F)c2nc(NCCN3CCOCC3)[nH]c12 [Example 34, N-(3-Chloro-4-fluorophenyl)-4-fluoro-N′-hydroxy-2-((2-morpholinoethyl)amino)-1H-benzo[d]imidazole-7-carboximidamide] — 0.53 log units lower, 5.17
- O/N=C(\Nc1ccc(F)c(Cl)c1)c1ccnc2nc(CNCC3CCCCO3)[nH]c12 (stereo not shown) [Example 127, N-(3-Chloro-4-fluorophenyl)-N′-hydroxy-2-((((tetrahydro-2H-pyran-2-yl)methyl)amino)methyl)-1H-imidazo[4,5-b]pyridine-7-carboximidamide] — within 0.2 log units, 5.63
- O/N=C(\Nc1ccc(F)c(Cl)c1)c1ccnc2nc(NCCN3CCCC3)[nH]c12 [Example 283, N-(3-chloro-4-fluorophenyl)-N′-hydroxy-2-((2-(pyrrolidin-1-yl)ethyl)amino)-1H-imidazo[4,5-b]pyridine-7-carboximidamide] — within 0.2 log units, 5.57
- CN(C)CCc1nc2nccc(/C(=N/O)Nc3cccc(Br)c3)c2[nH]1 [Example 265, N-(3-bromophenyl)-2-(2-(dimethylamino)ethyl)-N′-hydroxy-1H-imidazo[4,5-b]pyridine-7-carboximidamide] — 0.60 log units higher, 6.30
- CS(=O)(=O)CCNc1nc2c(F)c(F)cc(/C(=N/O)Nc3ccc(F)c(Cl)c3)c2[nH]1 [Example 35, N-(3-Chloro-4-fluorophenyl)-4,5-difluoro-N′-hydroxy-2-((2-(methylsulfonyl)ethyl)amino)-1H-benzo[d]imidazole-7-carboximidamide] — within 0.2 log units, 5.67
- CN(C)CCc1nc2nccc(/C(=N/O)Nc3ccc(F)c(Cl)c3)c2[nH]1 [Example 184, N-(3-Chloro-4-fluorophenyl)-2-(2-(dimethylamino)ethyl)-N′-hydroxy-1H-imidazo[4,5-b]pyridine-7-carboximidamide] — 0.53 log units higher, 6.23
- CN(C)CCNCc1nc2nccc(/C(=N/O)Nc3ccc(F)c(Cl)c3)c2[nH]1 [Example 136, N-(3-Chloro-4-fluorophenyl)-2-(((2-(dimethylamino)ethyl)amino)methyl)-N′-hydroxy-1H-imidazo[4,5-b]pyridine-7-carboximidamide] — 0.50 log units lower, 5.20
- O/N=C(\Nc1ccc(F)c(Cl)c1)c1ccnc2nc(-c3cccs3)[nH]c12 [Example 146, N-(3-Chloro-4-fluorophenyl)-N′-hydroxy-2-(thiophen-2-yl)-1H-imidazo[4,5-b]pyridine-7-carboximidamide] — 0.32 log units lower, 5.38
- Cc1c(F)cc(/C(=N/O)Nc2ccc(F)c(Cl)c2)c2[nH]cnc12 [Example 9, N-(3-Chloro-4-fluorophenyl)-6-fluoro-N′-hydroxy-7-methyl-3H-benzimidazole-4-carboximidamide] — 0.50 log units higher, 6.20
- O=S(=O)(CCNc1nc2nccc(/C(=N/O)Nc3ccc(F)c(Cl)c3)c2[nH]1)N1CCOCC1 [Example 236, N-(3-chloro-4-fluorophenyl)-N′-hydroxy-2-((2-(morpholinosulfonyl)ethyl)amino)-1H-imidazo[4,5-b]pyridine-7-carboximidamide] — 0.38 log units lower, 5.32
- O/N=C(\Nc1ccc(F)c(Cl)c1)c1c(F)ccc2nc[nH]c12 [Example 3, N-(3-Chloro-4-fluorophenyl)-6-fluoro-N′-hydroxy-1H-benzo[d]imidazole-7-carboximidamide] — 0.38 log units lower, 5.32
- CC(C)NCc1nc2c(/C(=N/O)Nc3ccc(F)c(Cl)c3)cc(F)c(F)c2[nH]1 [Example 51, N-(3-Chloro-4-fluorophenyl)-6,7-difluoro-N′-hydroxy-2-((isopropylamino)methyl)-1H-benzo[d]imidazole-4-carboximidamide] — 0.55 log units higher, 6.25
- O/N=C(\Nc1ccc(F)c(C(F)(F)F)c1)c1ccnc2[nH]c(CCl)nc12 [Example 170, 2-(Chloromethyl)-N-(4-fluoro-3-(trifluoromethyl)phenyl)-N′-hydroxy-3H-imidazo[4,5-b]pyridine-7-carboximidamide] — within 0.2 log units, 5.71
- O/N=C(\Nc1ccc(F)c(Cl)c1)c1ccnc2nc(-c3ccn[nH]3)[nH]c12 [Example 150, N-(3-Chloro-4-fluorophenyl)-N′-hydroxy-2-(1H-pyrazol-5-yl)-1H-imidazo[4,5-b]pyridine-7-carboximidamide] — 0.63 log units lower, 5.07
- O/N=C(\Nc1cccc(Cl)c1)c1cc(F)c(F)c2nc(CNCC3CC3)[nH]c12 [Example 25, N-(3-Chlorophenyl)-2-(((cyclopropylmethyl)amino)methyl)-4,5-difluoro-N′-hydroxy-1H-benzo[d]imidazole-7-carboximidamide] — within 0.2 log units, 5.84
- O/N=C(\Nc1ccc(Cl)c(Br)c1)c1ccnc2nc[nH]c12 [Example 85, N-(3-Bromo-4-chlorophenyl)-N′-hydroxy-1H-imidazo[4,5-b]pyridine-7-carboximidamide] — 0.64 log units higher, 6.34
- O/N=C(\Nc1ccc(F)c(Cl)c1)c1ccnc2nc(CNCc3cnccn3)[nH]c12 [Example 134, N-(3-Chloro-4-fluorophenyl)-N′-hydroxy-2-(((pyrazin-2-ylmethyl)amino)methyl)-1H-imidazo[4,5-b]pyridine-7-carboximidamide] — 0.30 log units lower, 5.40
- Nc1nc2c(F)c(F)cc(/C(=N/O)Nc3ccc(F)c(C(F)(F)F)c3)c2[nH]1 [Example 17, 2-Amino-4,5-difluoro-N-(4-fluoro-3-(trifluoromethyl)phenyl)-N′-hydroxy-1H-benzo[d]imidazole-7-carboximidamide] — 0.26 log units higher, 5.96

same assay, conditions: HeLa cells, IFNγ-induced IDO1, kynurenine in supernatant, 48 hour incubation; geometric mean of a minimum of four determinations

Point of comparison: CCN(CCNc1nc2nccc(/C(=N/O)Nc3ccc(F)c(Cl)c3)c2[nH]1)C1CC1 [Example 403, N-(3-chloro-4-fluorophenyl)-2-((2-(cyclopropyl(ethyl)amino)ethyl)amino)-N′-hydroxy-1H-imidazo[4,5-b]pyridine-7-carboximidamide], pEC50 6.72. Against it:
- CN1CC(N)[C@H](Nc2nc3c(F)c(F)cc(/C(=N/O)Nc4ccc(F)c(Cl)c4)c3[nH]2)C1 (stereo partly drawn) [Example 435, 2-(((3R)-4-amino-1-methylpyrrolidin-3-yl)amino)-N-(3-chloro-4-fluorophenyl)-4,5-difluoro-N′-hydroxy-1H-benzo[d]imidazole-7-carboximidamide] — 0.98 log units lower, 5.74
- O/N=C(\Nc1ccc(F)c(Cl)c1)c1ccnc2nc(NCCN3CCC[C@H]3C(F)(F)F)[nH]c12 [Example 481, (S)-N-(3-chloro-4-fluorophenyl)-N′-hydroxy-2-((2-(2-(trifluoromethyl)pyrrolidin-1-yl)ethyl)amino)-1H-imidazo[4,5-b]pyridine-7-carboximidamide] — 0.60 log units lower, 6.12
- O/N=C(\Nc1ccc(F)c(Cl)c1)c1cc(F)c(F)c2nc(N[C@H]3CCCCNC3)[nH]c12 [Example 462, (S)-2-(azepan-3-ylamino)-N-(3-chloro-4-fluorophenyl)-4,5-difluoro-N′-hydroxy-1H-benzo[d]imidazole-7-carboximidamide] — 0.88 log units lower, 5.84
- O/N=C(\Nc1cccc(Cl)c1)c1cc(F)c(F)c2nc(NCCN3CCCC3)[nH]c12 [Example 330, N-(3-chlorophenyl)-4,5-difluoro-N′-hydroxy-2-((2-(pyrrolidin-1-yl)ethyl)amino)-1H-benzo[d]imidazole-7-carboximidamide] — 0.34 log units lower, 6.38
- CN(CCc1nc2nccc(/C(=N/O)Nc3ccc(F)c(Cl)c3)c2[nH]1)Cc1ccccc1 [Example 396, 2-(2-(benzyl(methyl)amino)ethyl)-N-(3-chloro-4-fluorophenyl)-N′-hydroxy-1H-imidazo[4,5-b]pyridine-7-carboximidamide] — 0.62 log units lower, 6.10
- CN(C)[C@H]1CCC[C@H](Nc2nc3c(F)c(F)cc(/C(=N/O)Nc4ccc(F)c(Cl)c4)c3[nH]2)C1 [Example 439, N-(3-chloro-4-fluorophenyl)-2-(((1S,3S)-3-(dimethylamino)cyclohexyl)amino)-4,5-difluoro-N′-hydroxy-1H-benzo[d]imidazole-7-carboximidamide] — 1.55 log units lower, 5.17
